From patent US10471050B2, “2-OXO-1,2-dihydropyridine-3,5-dicarboxamide compounds as bromodomain inhibitors” (GlaxoSmithKline Intellectual Property (No. 2) Limited, priority 2015, dated 2019) come the findings set out here.

The first experiment deals with T1, BRD4 BD2 (Homo sapiens, UniProt O60885, Y97A).
T1 construct: BRD4 (1-477) (Y97A) and (Y390A); made in house; host or cells: E. coli (pET15b vector)
Briefly: BRD4 BD2 TR-FRET competition assay. In kind it is binding. The settings on record: average of N recorded values, read-out: BRD4 BD2 IC50 (average value) (converted). How it is done: Bromodomain binding was assessed utilising a time resolved fluorescent resonance energy transfer (TR-FRET) competition assay. To enable this approach a known, high affinity, pan-BET interacting small molecule was labelled with Alexa Fluor® 647, which is a far-red-fluorescent dye (Reference Compound X). Reference Compound X acts as a reporter of bromodomain binding and is the acceptor fluorophore component of the TR-FRET pair. Europium chelate, conjugated to an anti-6*His antibody, was utilised as the donor fluorophore in the TR-FRET pair. […] A TR-FRET signal is generated when the donor and acceptor fluorophores are in close proximity, between 20-80 Å, which is enabled in this assay by binding of Reference Compound X to the bromodomain protein.
In order to generate a TR-FRET signal, donor fluorophore is excited by a laser at λ337 nm, which subsequently leads to emission at λ618 nm. If the acceptor fluorophore is in close proximity then energy transfer can occur, which leads to emission of Alexa Fluor® 647 at λ665 nm. In the presence of competitor compound, Reference Compound X can be displaced from binding to the bromodomain. If displacement occurs, the acceptor fluorophore is no longer in proximity to the donor fluorophore, which prevents fluorescent energy transfer and, subsequently, a loss of Alexa Fluor® 647 emission at λ665 nm.
The competition of the compounds of formula (I) with Reference Compound X for binding to the BET family (BRD2, BRD3, BRD4 and BRDT) was assessed using protein truncates spanning both bromodomain 1 (BD1) and bromodomain 2 (BD2). In order to monitor differential binding to either BD1 or BD2, single residue mutations of key tyrosines to alanine were made in the acetyl lysine binding pockets. To validate this approach, a double residue mutant tandem domain protein was produced for each of the BET family members. Utilising a Fluorescence Polarisation approach, binding affinities for each of the single and double mutants for Reference Compound X were determined.
Final purification was completed by Superdex 200 prep grade size exclusion column. Purified protein was stored at −80° C. in 20 mM HEPES pH 7.5 and 100 mM NaCl.
All assay components were dissolved in an assay buffer composing of 50 mM HEPES pH7.4, 50 mM NaCl, 5% Glycerol, 1 mM DTT and 1 mM CHAPS. Reference Compound X was diluted, in assay buffer containing 20 nM single mutant, tandem bromodomain protein, to a concentration equivalent to 2*Kd for this bromodomain. The solution containing bromodomain and Reference Compound X was added to dose response dilutions of test compound or DMSO vehicle (a maximum of 0.5% DMSO is used in this assay) in Greiner 384 well black low volume microtitre plates and subsequently incubated for 30 minutes at room temperature. An equal volume of 3 nM of anti-6*His Europium chelate was added to all wells, followed by a further 30 minute incubation at room temperature. TR-FRET was detected using a Perkin Elmer Multimode plate reader, by exciting the donor fluorophore at λ337 nm and subsequently, after a delay of 50 μsecs, measuring emission of the donor and acceptor fluorophores at λ615 nm and λ665 nm, respectively. In order to control these assays, 16 replicates each of uninhibited (DMSO vehicle) and inhibited (10*IC50 concentrations of Example 11 of WO 2011/054846A1) TR-FRET assays were included on every microtitre plate.
cA four parameter curve fit of the following form was then applied: y=a+((b−a)/(1+(10^x/10^c)^d)
Where ‘a’ is the minimum, ‘b’ is the Hill slope, ‘c’ is the pIC50 and ‘d’ is the maximum.
With `CCCNC(=O)c1cc(C(=O)NC)c(=O)n(Cc2ccccc2)c1` [Example 2, 1-Benzyl-N^3-methyl-2-oxo-N^5-propyl-1,2-dihydropyridine-3,5-dicarboxamide], the IC50 was 0.126 µM.

Take `CNC(=O)c1cc(C(=O)NCCCc2ncc[nH]2)cn(Cc2ccccc2)c1=O` [Example 11, N^5-(3-(1H-Imidazol-2-yl)propyl)-1-benzyl-N^3-methyl-2-oxo-1,2-dihydropyridine-3,5-dicarboxamide]: the IC50 was 0.0631 µM. On the same count and under the same terms, the value for `CNC(=O)c1cc(C(=O)NCCc2cn[nH]c2)cn(Cc2cccc(C)c2)c1=O` [Example 13, N^5-(2-(1H-Pyrazol-4-yl)ethyl)-N^3-methyl-1-(3-methylbenzyl)-2-oxo-1,2-dihydropyridine-3,5-dicarboxamide] was 0.1 µM. Consider `CCNC(=O)c1cc(C(=O)NC)c(=O)n(Cc2cccc(OCCO)c2)c1` [Example 20, N^5-Ethyl-1-(3-(2-hydroxyethoxy)benzyl)-N^3-methyl-2-oxo-1,2-dihydropyridine-3,5-dicarboxamide], for which the IC50 is 0.251 µM. Same read-out and setting: the value for `CCNC(=O)c1cc(C(=O)NC)c(=O)n(Cc2cccc3[nH]ccc23)c1` [Example 25, 1-((1H-Indol-4-yl)methyl)-N^5-ethyl-N^3-methyl-2-oxo-1,2-dihydropyridine-3,5-dicarboxamide] was 0.0251 µM.

Staying with this experiment, now noted: single mutant tandem BRD4, read-out: pIC50 in the BRD4 BD2 assay (converted).
Consider `CCCNC(=O)c1cc(C(=O)NC)c(=O)n(Cc2ccccc2)c1` [Example 2, 1-Benzyl-N^3-methyl-2-oxo-N^5-propyl-1,2-dihydropyridine-3,5-dicarboxamide], for which the IC50 was 0.1 to 1 µM. For `CCCCNC(=O)c1cc(C(=O)NC)c(=O)n(Cc2ccccc2)c1` [Example 3, 1-Benzyl-N^5-butyl-N^3-methyl-2-oxo-1,2-dihydropyridine-3,5-dicarboxamide], the IC50 is 0.1 to 1 µM. Same read-out and setting: the value for `CNC(=O)CCCNC(=O)c1cc(C(=O)NC)c(=O)n(Cc2ccccc2)c1` [Example 5, 1-Benzyl-N^3-methyl-N^5-(4-(methylamino)-4-oxobutyl)-2-oxo-1,2-dihydropyridine-3,5-dicarboxamide] was 0.1 to 1 µM; that for `CNC(=O)c1cc(C(=O)NCCCNC(=O)OC(C)(C)C)cn(Cc2ccccc2)c1=O` [Example 6, tert-Butyl (3-(1-benzyl-5-(methylcarbamoyl)-6-oxo-1,6-dihydropyridine-3-carboxamido)propyl)carbamate] was 0.1 to 1 µM; that for `CNC(=O)c1cc(C(=O)NCCC(F)(F)F)cn(Cc2ccccc2)c1=O` [Example 7, 1-Benzyl-N^3-methyl-2-oxo-N^5-(3,3,3-trifluoropropyl)-1,2-dihydropyridine-3,5-dicarboxamide] was 0.1 to 1 µM. For `CNC(=O)c1cc(C(=O)NCCc2cnc[nH]2)cn(Cc2ccccc2)c1=O` [Example 8, N^5-(2-(1H-Imidazol-5-yl)ethyl)-1-benzyl-N^3-methyl-2-oxo-1,2-dihydropyridine-3,5-dicarboxamide], the IC50 is 0.1 to 1 µM. The same measure, in the same setting: the figure for `CNC(=O)c1cc(C(=O)NCCCC(=O)OC)cn(Cc2ccccc2)c1=O` [Example 9, Methyl 4-(1-benzyl-5-(methylcarbamoyl)-6-oxo-1,6-dihydropyridine-3-carboxamido)butanoate] is 0.1 to 1 µM; for `CNC(=O)c1cc(C(=O)NCCc2ccccn2)cn(Cc2ccccc2)c1=O` [Example 10, 1-Benzyl-N^3-methyl-2-oxo-N^5-(2-(pyridin-2-yl)ethyl)-1,2-dihydropyridine-3,5-dicarboxamide] it is 0.1 to 1 µM.

As for `CNC(=O)c1cc(C(=O)NCCCc2ncc[nH]2)cn(Cc2ccccc2)c1=O` [Example 11, N^5-(3-(1H-Imidazol-2-yl)propyl)-1-benzyl-N^3-methyl-2-oxo-1,2-dihydropyridine-3,5-dicarboxamide], the IC50 is ≤ 0.1 µM. The same measure, in the same setting: the figure for `CNC(=O)c1cc(C(=O)NCCc2cn[nH]c2)cn(Cc2ccccc2)c1=O` [Example 12, N^5-(2-(1H-Pyrazol-4-yl)ethyl)-1-benzyl-N^3-methyl-2-oxo-1,2-dihydropyridine-3,5-dicarboxamide] is ≤ 0.1 µM; for `CNC(=O)c1cc(C(=O)NCCc2cn[nH]c2)cn(Cc2cccc(C)c2)c1=O` [Example 13, N^5-(2-(1H-Pyrazol-4-yl)ethyl)-N^3-methyl-1-(3-methylbenzyl)-2-oxo-1,2-dihydropyridine-3,5-dicarboxamide] it is ≤ 0.1 µM. Take `CCNC(=O)c1cc(C(=O)NC)c(=O)n(Cc2cccc(C)c2)c1` [Example 14, N^5-Ethyl-N^3-methyl-1-(3-methylbenzyl)-2-oxo-1,2-dihydropyridine-3,5-dicarboxamide]: the IC50 is 0.1 to 1 µM. For the compound `CNC(=O)c1cc(C(=O)NCCc2cn[nH]c2)cn([C@H](C)c2ccccc2)c1=O` [Example 15, (R)-N^5-(2-(1H-Pyrazol-4-yl)ethyl)-N^3-methyl-2-oxo-1-(1-phenylethyl)-1,2-dihydropyridine-3,5-dicarboxamide], the IC50 is ≤ 0.1 µM. Still for that read-out and setting: the value for `CCNC(=O)c1cc(C(=O)NC)c(=O)n([C@H](C)c2ccccc2)c1` [Example 16, (R)-N^5-Ethyl-N^3-methyl-2-oxo-1-(1-phenylethyl)-1,2-dihydropyridine-3,5-dicarboxamide] was 0.1 to 1 µM; that for `CNC(=O)c1cc(C(=O)NCCc2cn[nH]c2)cn(Cc2cccc(OC)c2)c1=O` [Example 17, N^5-(2-(1H-pyrazol-4-yl)ethyl)-1-(3-methoxybenzyl)-N^3-methyl-2-oxo-1,2-dihydropyridine-3,5-dicarboxamide] was 0.1 to 1 µM; that for `CCNC(=O)c1cc(C(=O)NC)c(=O)n(Cc2cccc(OC)c2)c1` [Example 18, N^5-ethyl-1-(3-methoxybenzyl)-N^3-methyl-2-oxo-1,2-dihydropyridine-3,5-dicarboxamide] was 0.1 to 1 µM. `CNC(=O)c1cc(C(=O)NCCc2c[nH]cn2)cn(Cc2cccc(OCCO)c2)c1=O` [Example 19, N^5-(2-(1H-imidazol-4-yl)ethyl)-1-(3-(2-hydroxyethoxy)benzyl)-N^3-methyl-2-oxo-1,2-dihydropyridine-3,5-dicarboxamide]: the IC50 is 0.1 to 1 µM. On the same count and under the same terms, the value for `CCNC(=O)c1cc(C(=O)NC)c(=O)n(Cc2cccc(OCCO)c2)c1` [Example 20, N^5-Ethyl-1-(3-(2-hydroxyethoxy)benzyl)-N^3-methyl-2-oxo-1,2-dihydropyridine-3,5-dicarboxamide] was 0.1 to 1 µM. Turning to `CNC(=O)c1cc(C(=O)NCCc2cn[nH]c2)cn(Cc2cccc(OCCO)c2)c1=O` [Example 21, N^5-(2-(1H-pyrazol-4-yl)ethyl)-1-(3-(2-hydroxyethoxy)benzyl)-N^3-methyl-2-oxo-1,2-dihydropyridine-3,5-dicarboxamide], the IC50 is 0.1 to 1 µM. On the same count and under the same terms, the figure for `CCNC(=O)c1cc(C(=O)NC)c(=O)n(Cc2cccc(C)c2F)c1` [Example 22, N^5-Ethyl-1-(2-fluoro-3-methylbenzyl)-N^3-methyl-2-oxo-1,2-dihydropyridine-3,5-dicarboxamide] is 0.1 to 1 µM. As to `CNC(=O)c1cc(C(=O)NCCc2cn[nH]c2)cn(Cc2cccc(C)c2F)c1=O` [Example 23, N^5-(2-(1H-Pyrazol-4-yl)ethyl)-1-(2-fluoro-3-methylbenzyl)-N^3-methyl-2-oxo-1,2-dihydropyridine-3,5-dicarboxamide], the IC50 was 0.1 to 1 µM. On to `CNC(=O)c1cc(C(=O)NCCc2c[nH]cn2)cn(Cc2cccc3[nH]ccc23)c1=O` [Example 24, N^5-(2-(1H-Imidazol-4-yl)ethyl)-1-((1H-indol-4-yl)methyl)-N^3-methyl-2-oxo-1,2-dihydropyridine-3,5-dicarboxamide], for which the IC50 was ≤ 0.1 µM.

`CCNC(=O)c1cc(C(=O)NC)c(=O)n(Cc2cccc3[nH]ccc23)c1` [Example 25, 1-((1H-Indol-4-yl)methyl)-N^5-ethyl-N^3-methyl-2-oxo-1,2-dihydropyridine-3,5-dicarboxamide]: the IC50 was ≤ 0.1 µM. On the same count and under the same terms, the figure for `CNC(=O)c1cc(C(=O)NCCc2cn[nH]c2)cn(Cc2cccc3[nH]ccc23)c1=O` [Example 26, 1-((1H-Indol-4-yl)methyl)-N^5-(2-(1H-pyrazol-4-yl)ethyl)-N^3-methyl-2-oxo-1,2-dihydropyridine-3,5-dicarboxamide] is ≤ 0.1 µM. Same read-out and setting: the figure for `CNC(=O)c1cc(C(=O)NCC(C)OC)cn(Cc2ccccc2)c1=O` (centres unmarked) [Example 29, 1-Benzyl-N^5-(2-methoxypropyl)-N^3-methyl-2-oxo-1,2-dihydropyridine-3,5-dicarboxamide] is 1 to 100 µM; for `CNC(=O)c1cc(C(=O)NCC(C)O)cn(Cc2ccccc2)c1=O` (centres unmarked) [Example 31, 1-Benzyl-N^5-(2-hydroxypropyl)-N^3-methyl-2-oxo-1,2-dihydropyridine-3,5-dicarboxamide] it is 1 to 100 µM; for `CNC(=O)c1cc(C(=O)NCCCO)cn(Cc2ccccc2)c1=O` [Example 32, 1-Benzyl-N^5-(3-hydroxypropyl)-N^3-methyl-2-oxo-1,2-dihydropyridine-3,5-dicarboxamide] it is 0.1 to 1 µM.
